{
  "source": "patent US9040542B2",
  "about": "“Solid forms of gyrase inhibitor (R)-1-ethyl-3-[6-fluoro-5-[2-(1-hydroxy-1-methyl-ethyl)pryimidin-5-yl]-7-(tetrahydrofuran-2-yl)-1H-benzimidazol-2-yl]urea” (priority 2011, dated 2015)",
  "key": {"[1]": {"molecular_target": "S. aureus DNA gyrase (Staphylococcus aureus, UniProt P0A0K8)", "test": "DNA Gyrase ATPase Assay", "assay_type": "biochemical", "conditions": "30° C., read-out: Ki, Inhibition of S. aureus DNA Gyrase", "protocol": "The ATP hydrolysis activity of S. aureus DNA gyrase is measured by coupling the production of ADP through pyruvate kinase/lactate dehydrogenase to the oxidation of NADH. This method has been described previously (Tamura and Gellert, 1990, J. Biol. Chem., 265, 21342).\nATPase assays are carried out at 30° C. in buffered solutions containing 100 mM TRIS pH 7.6, 1.5 mM MgCl2, 150 mM KCl. The coupling system contains final concentrations of 2.5 mM phosphoenol pyruvate, 200 μM nicotinamide adenine dinucleotide (NADH), 1 mM DTT, 30 ug/ml pyruvate kinase, and 10 ug/ml lactate dehydrogenase. The enzyme (90 nM final concentration) and a DMSO solution (3% final concentration) of a compound is added. The reaction mixture is allowed to incubate for 10 minutes at 30° C. The reaction is initiated by the addition of ATP to a final concentration of 0.9 mM, and the rate of NADH disappearance is monitored at 340 nanometers over the course of 10 minutes. The Ki and IC50 values are determined from rate versus concentration profiles."}, "[2]": {"molecular_target": "S. aureus TopoIV enzyme (Staphylococcus aureus, UniProt P0C1S7)", "test": "DNA Topo IV ATPase Assay", "assay_type": "biochemical", "conditions": "30° C., read-out: Ki, Inhibition of S. aureus DNA Topo IV", "protocol": "The conversion of ATP to ADP by S. aureus TopoIV enzyme is coupled to the conversion of NADH to NAD+, and the progress of the reaction is measured by the change in absorbance at 340 nm. TopoIV (64 nM) is incubated with the selected compound (3% DMSO final) in buffer for 10 minutes at 30° C. The buffer consists of 100 mM Tris 7.5, 1.5 mM MgCl2, 200 mM K•Glutamate, 2.5 mM phosphoenol pyruvate, 0.2 mM NADH, 1 mM DTT, 5 μg/mL linearized DNA, 50 μg/mL BSA, 30 μg/mL pyruvate kinase, and 10 μg/mL lactate dehyrodgenase (LDH). The reaction is initiated with ATP, and rates are monitored continuously for 20 minutes at 30° C. on a Molecular Devices SpectraMAX plate reader. The inhibition constant, Ki, and the IC50 are determined from plots of rate vs. concentration of selected compound fit to the Morrison Equation for tight binding inhibitors."}, "[3]": {"test": "Stability data of solid forms on storage", "assay_type": "physicochemical"}},
  "data": [
    {"smiles": "CCNC(=O)Nc1nc2cc(-c3cnc(C(C)(C)O)nc3)c(F)c([C@H]3CCCO3)c2[nH]1", "note": "[Compound 23, 1-ethyl-3-[6-fluoro-5-[2-(1-hydroxy-1-methyl-ethyl)pyrimidin-5-yl]-7-[(2R)-tetrahydrofuran-2-yl]-1H-benzimidazol-2-yl]urea]", "values": [
      {"measurement": "Ki", "setting": "[1]", "result": 9, "unit": "nM"},
      {"measurement": "Ki", "setting": "[2]", "result": 12, "unit": "nM"},
      {"measurement": "stability of solid form", "setting": "[3]; 40° C. with relative humidity of up to 75%", "result": "stable for at least one month"},
      {"measurement": "chemical and physical stability", "setting": "[3]; all storage conditions (25° C./60% RH, 40° C./ambient, and 40° C./75% RH), 1 month timepoint", "result": "chemically and physically stable"}
    ]}
  ]
}
